Experiment [1] relates to caterpillars of the army worm (Spodoptera frugiperda). Nature of the experiment: Spodoptera frugiperda test (SPODFR spray treatment). It is filed as in vivo. The conditions noted are these: Example I; 4 ppm active compound; sprayed maize leaf discs. As to the method: Spodoptera frugiperda Test (SPODFR Spray Treatment)
• Solvents: 78.0 parts by weight of acetone • 1.5 parts by weight of dimethylformamide • Emulsifier: 0.5 part by weight of alkylaryl polyglyycol ether
After the desired period of time, the effect in % is determined. 100% means that all caterpillars have been killed; 0% means that none of the caterpillars have been killed.

Experiment [2] has as its system larvae of the mustard beetle (Phaedon cochleariae). Nature of the experiment: Phaedon test (PHAECO spray treatment). It is filed as in vivo. The following applies: Example G; 4 ppm active compound; sprayed Chinese cabbage discs. As to the method:
Phaedon Test (PHAECO Spray Treatment)
• Solvents: 78 parts by weight of acetone • 1.5 parts by weight of dimethylformamide • Emulsifier: 0.5 part by weight of alkylaryl polyglyycol ether
After the desired period of time, the effect in % is determined. 100% means that all beetle larvae have been killed; 0% means that none of the beetle larvae have been killed.

`CC[C@H](C)[C@H]1OC2(C=C[C@@H]1C)C[C@@H]1C[C@@H](C/C=C(\C)[C@@H](OC3CC(OC)C(OC(=O)Cn4cccn4)C(C)O3)[C@@H](C)/C=C/C=C3\CO[C@@H]4[C@H](O)C(C)=CC(C(=O)O1)[C@]34O)O2` (some centres unmarked) [Example 35]: the “Kill rate in % after 5 days” value in experiment [1] came to 100%. In experiment [2], the “Kill rate in % after 7 days” value turned out to be 100%.
For the compound `CC[C@H](C)[C@H]1OC2(C=C[C@@H]1C)C[C@@H]1C[C@@H](C/C=C(\C)[C@@H](OC3CC(OC)C(OC(=O)C4(F)CC4)C(C)O3)[C@@H](C)/C=C/C=C3\CO[C@@H]4[C@H](O)C(C)=CC(C(=O)O1)[C@]34O)O2` (some centres unmarked) [Example 36], in experiment [1], the “Kill rate in % after 5 days” value was determined as 83%. Moreover, the “Kill rate in % after 7 days” value in experiment [2] came to 100%.
`CCC(C)C1OC2(C=CC1C)CC1CC(CC=C(C)C(OC3CC(OC)C(OC(=O)C(C)NC(=O)OC(C)(C)C)C(C)O3)C(C)C=CC=C3COC4C(O)C(C)=CC(C(=O)O1)C34O)O2` (centres unmarked) [Example 40]: the “Kill rate in % after 5 days” value in experiment [1] worked out at 100%. Further, the “Kill rate in % after 7 days” value in experiment [2] was 100%.
Turning to `CC[C@H](C)[C@H]1OC2(C=C[C@@H]1C)C[C@@H]1C[C@@H](C/C=C(\C)[C@@H](OC3CC(OC)C(OC(=O)Cn4cnnn4)C(C)O3)[C@@H](C)/C=C/C=C3\CO[C@@H]4[C@H](O)C(C)=CC(C(=O)O1)[C@]34O)O2` (some centres unmarked) [Example 42], the “Kill rate in % after 5 days” value in experiment [1] was determined as 100%. For the same compound, the “Kill rate in % after 7 days” value in experiment [2] is listed as 83%.
On the same counts, the results for `CC[C@H](C)[C@H]1OC2(C=C[C@@H]1C)C[C@@H]1C[C@@H](C/C=C(\C)[C@@H](OC3CC(OC)C(OC(=O)CN4C(=O)CCC4=O)C(C)O3)[C@@H](C)/C=C/C=C3\CO[C@@H]4[C@H](O)C(C)=CC(C(=O)O1)[C@]34O)O2` (some centres unmarked) [Example 45] are 100% and 100%.
On the same counts, the results for `CC[C@H](C)[C@H]1OC2(C=C[C@@H]1C)C[C@@H]1C[C@@H](C/C=C(\C)[C@@H](OC3CC(OC)C(OC(=O)Cn4ccc(C(F)(F)F)n4)C(C)O3)[C@@H](C)/C=C/C=C3\CO[C@@H]4[C@H](O)C(C)=CC(C(=O)O1)[C@]34O)O2` (some centres unmarked) [Example 59] are 100% and 100%.
In the same order, the values of `CC[C@H](C)[C@H]1OC2(C=C[C@@H]1C)C[C@@H]1C[C@@H](C/C=C(\C)[C@@H](OC3CC(OC)C(OC(=O)C(C)c4ccc(Cl)nc4)C(C)O3)[C@@H](C)/C=C/C=C3\CO[C@@H]4[C@H](O)C(C)=CC(C(=O)O1)[C@]34O)O2` (some centres unmarked) [Example 69] are 100% and 100%.
As to `CC[C@H](C)[C@H]1OC2(C=C[C@@H]1C)C[C@@H]1C[C@@H](C/C=C(\C)[C@@H](OC3CC(OC)C(OC(=O)Cc4cccn4C)C(C)O3)[C@@H](C)/C=C/C=C3\CO[C@@H]4[C@H](O)C(C)=CC(C(=O)O1)[C@]34O)O2` (some centres unmarked) [Example 71], the “Kill rate in % after 5 days” value in experiment [1] stood at 100%. Further, the “Kill rate in % after 7 days” value in experiment [2] worked out at 100%.
Regarding `CC[C@H](C)[C@H]1OC2(C=C[C@@H]1C)C[C@@H]1C[C@@H](C/C=C(\C)[C@@H](OC3CC(OC)C(OC(=O)C(C)C#N)C(C)O3)[C@@H](C)/C=C/C=C3\CO[C@@H]4[C@H](O)C(C)=CC(C(=O)O1)[C@]34O)O2` (some centres unmarked) [Example 72], the “Kill rate in % after 5 days” value in experiment [1] was determined as 100%. The “Kill rate in % after 7 days” value in experiment [2] turned out to be 100%.
For the compound `CN(C)C1(C)CC1` [Example 74], the “Kill rate in % after 5 days” value in experiment [1] is given as 100%. Further, the “Kill rate in % after 7 days” value in experiment [2] was 100%.
For `CC[C@H](C)[C@H]1OC2(C=C[C@@H]1C)C[C@@H]1C[C@@H](C/C=C(\C)[C@@H](OC3CC(OC)C(OC(=O)CN4CCOCC4=O)C(C)O3)[C@@H](C)/C=C/C=C3\CO[C@@H]4[C@H](O)C(C)=CC(C(=O)O1)[C@]34O)O2` (some centres unmarked) [Example 75], the “Kill rate in % after 5 days” value in experiment [1] is 100%. For the same compound, the “Kill rate in % after 7 days” value in experiment [2] is listed as 100%.
As to `CC[C@H](C)[C@H]1OC2(C=C[C@@H]1C)C[C@@H]1C[C@@H](C/C=C(\C)[C@@H](OC3CC(OC)C(OC(=O)CN4CCN(C)CC4)C(C)O3)[C@@H](C)/C=C/C=C3\CO[C@@H]4[C@H](O)C(C)=CC(C(=O)O1)[C@]34O)O2` (some centres unmarked) [Example 76], the “Kill rate in % after 5 days” value in experiment [1] came out at 100%. Also, the “Kill rate in % after 7 days” value in experiment [2] is given as 100%.
`CC[C@H](C)[C@H]1OC2(C=C[C@@H]1C)C[C@@H]1C[C@@H](C/C=C(\C)[C@@H](OC3CC(OC)C(OC(=O)CN4CCN(Cc5ccccc5)CC4)C(C)O3)[C@@H](C)/C=C/C=C3\CO[C@@H]4[C@H](O)C(C)=CC(C(=O)O1)[C@]34O)O2` (some centres unmarked) [Example 78]: the “Kill rate in % after 5 days” value in experiment [1] was 100%. Further, the “Kill rate in % after 7 days” value in experiment [2] came to 100%.
As to `CC[C@H](C)[C@H]1OC2(C=C[C@@H]1C)C[C@@H]1C[C@@H](C/C=C(\C)[C@@H](OC3CC(OC)C(OC(=O)CN4CCSCC4)C(C)O3)[C@@H](C)/C=C/C=C3\CO[C@@H]4[C@H](O)C(C)=CC(C(=O)O1)[C@]34O)O2` (some centres unmarked) [Example 80], the “Kill rate in % after 5 days” value in experiment [1] worked out at 100%. Besides, the “Kill rate in % after 7 days” value in experiment [2] is on record as 100%.
For `CCC(C)C1OC2(C=CC1C)CC1CC(CC=C(C)C(OC3CC(OC)C(OC(=O)C(C)N(C)C)C(C)O3)C(C)C=CC=C3COC4C(O)C(C)=CC(C(=O)O1)C34O)O2` (centres unmarked) [Example 81], the “Kill rate in % after 5 days” value in experiment [1] was found to be 100%. The “Kill rate in % after 7 days” value in experiment [2] stood at 100%.
Consider `CC[C@H](C)[C@H]1OC2(C=C[C@@H]1C)C[C@@H]1C[C@@H](C/C=C(\C)[C@@H](OC3CC(OC)C(OC(=O)C(C)CN(C)C)C(C)O3)[C@@H](C)/C=C/C=C3\CO[C@@H]4[C@H](O)C(C)=CC(C(=O)O1)[C@]34O)O2` (some centres unmarked) [Example 82], for which the “Kill rate in % after 5 days” value in experiment [1] came to 100%. Besides, the “Kill rate in % after 7 days” value in experiment [2] turned out to be 100%.
Regarding `CC[C@H](C)[C@H]1OC2(C=C[C@@H]1C)C[C@@H]1C[C@@H](C/C=C(\C)[C@@H](OC3CC(OC)C(OC(=O)CCN4CCOCC4)C(C)O3)[C@@H](C)/C=C/C=C3\CO[C@@H]4[C@H](O)C(C)=CC(C(=O)O1)[C@]34O)O2` (some centres unmarked) [Example 83], in experiment [1], the “Kill rate in % after 5 days” value stood at 100%. Besides, in experiment [2], the “Kill rate in % after 7 days” value worked out at 100%.
`CC[C@H](C)[C@H]1OC2(C=C[C@@H]1C)C[C@@H]1C[C@@H](C/C=C(\C)[C@@H](OC3CC(OC)C(OC(=O)C4CCCN(C)C4)C(C)O3)[C@@H](C)/C=C/C=C3\CO[C@@H]4[C@H](O)C(C)=CC(C(=O)O1)[C@]34O)O2` (some centres unmarked) [Example 84]: the “Kill rate in % after 5 days” value in experiment [1] worked out at 100%. Further, in experiment [2], the “Kill rate in % after 7 days” value amounted to 100%.
`CC[C@H](C)[C@H]1OC2(C=C[C@@H]1C)C[C@@H]1C[C@@H](C/C=C(\C)[C@@H](OC3CC(OC)C(OC(=O)CC4C(=O)NCCN4C)C(C)O3)[C@@H](C)/C=C/C=C3\CO[C@@H]4[C@H](O)C(C)=CC(C(=O)O1)[C@]34O)O2` (some centres unmarked) [Example 85]: the “Kill rate in % after 5 days” value in experiment [1] came out at 100%. In addition, the “Kill rate in % after 7 days” value in experiment [2] is given as 83%.
In the same order, the values of `CC[C@H](C)[C@H]1OC2(C=C[C@@H]1C)C[C@@H]1C[C@@H](C/C=C(\C)[C@@H](OC3CC(OC)C(OC(=O)CCN4CCCCC4)C(C)O3)[C@@H](C)/C=C/C=C3\CO[C@@H]4[C@H](O)C(C)=CC(C(=O)O1)[C@]34O)O2` (some centres unmarked) [Example 87] are 100% and 100%.
On the same counts, the results for `CC[C@H](C)[C@H]1OC2(C=C[C@@H]1C)C[C@@H]1C[C@@H](C/C=C(\C)[C@@H](OC3CC(OC)C(OC(=O)CCN4CCN(C)CC4)C(C)O3)[C@@H](C)/C=C/C=C3\CO[C@@H]4[C@H](O)C(C)=CC(C(=O)O1)[C@]34O)O2` (some centres unmarked) [Example 88] are 100% and 100%.
On the same counts, the results for `CC[C@H](C)[C@H]1OC2(CC[C@@H]1C)C[C@@H]1C[C@@H](C/C=C(\C)[C@@H](OC3CC(OC)C(OC(=O)CN)C(C)O3)[C@@H](C)/C=C/C=C3\CO[C@@H]4[C@H](O)C(C)=CC(C(=O)O1)[C@]34O)O2` (some centres unmarked) [Example 103] are 100% and 100%.
As for `CC[C@H](C)[C@H]1OC2(C=C[C@@H]1C)C[C@@H]1C[C@@H](C/C=C(\C)[C@@H](OC3CC(OC)C(OC(=O)C(C)N4CCNCC4)C(C)O3)[C@@H](C)/C=C/C=C3\CO[C@@H]4[C@H](O)C(C)=CC(C(=O)O1)[C@]34O)O2` (some centres unmarked) [Example 105], in experiment [1], the “Kill rate in % after 5 days” value turned out to be 100%. Moreover, in experiment [2], the “Kill rate in % after 7 days” value was 100%.
Turning to `CC[C@H](C)[C@H]1OC2(C=C[C@@H]1C)C[C@@H]1C[C@@H](C/C=C(\C)[C@@H](OC3CC(OC)C(OC(=O)C(C)N4CCOCC4)C(C)O3)[C@@H](C)/C=C/C=C3\CO[C@@H]4[C@H](O)C(C)=CC(C(=O)O1)[C@]34O)O2.O=C(O)c1ccccc1` (some centres unmarked) [Example 106, 4′-O-(2-Morpholin-4-ylpropanoyl)-avermectin B1 monosaccharide benzoate], the “Kill rate in % after 5 days” value in experiment [1] was 100%. Further, in experiment [2], the “Kill rate in % after 7 days” value is recorded as 100%.
With `CC[C@H](C)[C@H]1OC2(C=C[C@@H]1C)C[C@@H]1C[C@@H](C/C=C(\C)[C@@H](OC3CC(OC)C(OC(=O)CN4CCNCC4)C(C)O3)[C@@H](C)/C=C/C=C3\CO[C@@H]4[C@H](O)C(C)=CC(C(=O)O1)[C@]34O)O2.O=C(O)c1ccccc1.O=C(O)c1ccccc1` (some centres unmarked) [Example 107, 4′-O-(piperazin-1-ylacetyl)-avermectin B1 monosaccharide dibenzoate], in experiment [1], the “Kill rate in % after 5 days” value turned out to be 100%. Further, the “Kill rate in % after 7 days” value in experiment [2] amounted to 100%.
